Laboratory results published in US20260007673A1, “ROCK2 INHIBITORS FOR THE TREATMENT OF VIRAL INFECTIONS” (GRAVITON BIOSCIENCE BV, priority 2022, published 2026).
“Also recorded” adds a separate entry of the source.

Key:
SARS-CoV-2 [1] = assay: In vitro SARS-CoV-2 model in immortalized human airway epithelial cells (Calu-3), viral load by qRT-PCR; format: cell-based; conditions: for inhibition of viral replication (viral titers): 10 μM
Procedure: A 50 mM stock solution of Compound 2 (in DMSO) was diluted using PBS to concentrations of 100, 75, 50, 25, 10, 5, 1, 0.3, 0.1, and 0.03 μM. About 30,000 immortalized human airway epithelial cells (Calu-3) (see, FIG. 1-10) or primary human airway epithelial cells (Normal Human Small Airway Epithelial Cells; Sigma) (see, FIGS. 11-12) were grown to about 100,000 cells per well in a 96-well format. The cells were challenged with 10^2 or 10^3 PFU SARS-CoV-2 (standard CDC SARS-CoV-2 strain) in triplicate and incubated for 6 h at 37° C., followed by washing. The cells were then treated with Compound 2 or negative control by adding 10 μL of a solution of Compound 2 (0.03-100 μM) or negative control solution (DMSO in PBS) in triplicate and incubating for 2 h at 37° C. A positive control consisted of remdesivir (RDV; 10 μM). An additional control (3 wells) was treated with Compound 2 at the highest concentration, but not challenged with virus. The cells were maintained until the second endpoint readout at 48 h (the first occurring at 24 h post-infection). In some instances, the cellular media was replaced 24 h after infection with untreated culture medium (“unmediated medium”) or culture medium containing the positive control (RDV) or Compound 2 (“mediated medium”), see, FIG. 10.
Viral infection/load was analyzed by qPCR (qRT-PCR). RNA from cells was extracted with TRIzol reagent (Thermo Fisher) according to manufacturer's instructions. Viral or host RNA levels in the supernatant were determined using the TaqPath™ 1-Step RT-qPCR Master Mix (Thermo Fisher) on a CFX Connect Real-Time System (Bio-Rad) instrument using the following primers: Fwd: 5′-[…]-3′; Rev. 5′-[…]-3′.
Datasets were analyzed and plotted in GraphPad Prism (version 9.0.2). Analytic simulations of dose-response curves using the median-effect principle and mass-action Law were carried out using CompuSyn (https://www.combosyn.com/).

SARS-CoV-2 [2] = assay: In vitro SARS-CoV-2 model in primary human airway epithelial cells, viral load by qRT-PCR; format: cell-based; conditions: 5 μM and 25 μM, read at 24 and 48 hours (FIGS. 11-12)
Procedure: A 50 mM stock solution of Compound 2 (in DMSO) was diluted using PBS to concentrations of 100, 75, 50, 25, 10, 5, 1, 0.3, 0.1, and 0.03 μM. About 30,000 immortalized human airway epithelial cells (Calu-3) (see, FIG. 1-10) or primary human airway epithelial cells (Normal Human Small Airway Epithelial Cells; Sigma) (see, FIGS. 11-12) were grown to about 100,000 cells per well in a 96-well format. The cells were challenged with 10^2 or 10^3 PFU SARS-CoV-2 (standard CDC SARS-CoV-2 strain) in triplicate and incubated for 6 h at 37° C., followed by washing. The cells were then treated with Compound 2 or negative control by adding 10 μL of a solution of Compound 2 (0.03-100 μM) or negative control solution (DMSO in PBS) in triplicate and incubating for 2 h at 37° C. A positive control consisted of remdesivir (RDV; 10 μM). […] The cells were maintained until the second endpoint readout at 48 h (the first occurring at 24 h post-infection). […]
Viral infection/load was analyzed by qPCR (qRT-PCR). […] Viral or host RNA levels in the supernatant were determined using the TaqPath™ 1-Step RT-qPCR Master Mix (Thermo Fisher) on a CFX Connect Real-Time System (Bio-Rad) instrument using the following primers: Fwd: 5′-[…]-3′; Rev. […]
Datasets were analyzed and plotted in GraphPad Prism (version 9.0.2). […]

Calu-3 cells = assay: Cellular toxicity: LDH assay; format: cell-based, human; conditions: 0.03-100 μM, LDH assay at 48 h (FIGS. 4-5)
Procedure: The toxicity of Compound 2 was measured at concentrations of 0.1, 0.3, 1, 10, 25, 50, 75, and 100 μM in Calu-3 cells by LDH ([…] dehydrogenase) assay (Clontech) according to the manufacturer's instructions. A positive control consisted of saponin (0.5%). A negative control consisted of DMSO (0.2%).

[3] = tested on: SARS-CoV-2 2019-nCoV/USA-WA1/2020 strain; assay: Lung viral load by qPCR in infected human ACE2 transgenic mice; format: in vivo; conditions: mice infected with 100 or 1000 pfu; 300 mg/kg daily oral gavage; 7, 14, 21 days; vs vehicle and remdesivir (FIGS. 13-14)
[4] = tested on: SARS-CoV-2 infected lung tissue; assay: Lung fibrosis by H&E staining in infected human ACE2 transgenic mice; format: in vivo; conditions: infected mouse lung tissue 7, 14, 21 days after infection; vs vehicle (FIG. 16)
SARS-CoV-2 [5] = assay: 7-day clinical trial in patients with mild to moderate COVID-19; format: in vivo

Cn1c(C(=O)N2CC(F)(F)C2)cc2ccc(-c3nccc(Nc4ccc(-c5cn[nH]c5)cc4)n3)cc21 [Compound 2, (6-(4-((4-(1H-pyrazol-4-yl)phenyl)amino)pyrimidin-2-yl)-1-methyl-1H-indol-2-yl)(3,3-difluoroazetidin-1-yl)methanone]
inhibition of viral replication (viral titers) (SARS-CoV-2 [1]; Calu-3, read at 24 and 48 hours, compared to negative control (0.1% DMSO) and positive control (RDV) (FIGS. 6-7)): inhibiting viral replication
inhibition of viral replication (viral titers) (SARS-CoV-2 [1]; Calu-3, read at 24 and 48 hours, treated 0, 2, 4, 8 h post-infection, compared to control (FIGS. 1-3)): inhibiting viral replication
dose response of inhibition of viral replication (SARS-CoV-2 [1]; Calu-3, 1, 5, 10 and 25 μM, read at 24 and 48 hours, given 0-10 h after infection (FIGS. 8A-9F)): Dose responses were observed at all time points
viral concentration after repeat dosing (SARS-CoV-2 [1]; Calu-3, 48 h after infection, medium containing compound replenished at 24 h (FIG. 10)): further decreased viral concentration
viral titers of SARS-CoV-2 (SARS-CoV-2 [1]; immortalized human airway epithelial cells infected with SARS-CoV-2, FIGS. 1-12): substantially reduce viral titers
efficacy against SARS-CoV-2 infection (viral concentration) (SARS-CoV-2 [2]): efficacy at 5 μM and 25 μM concentrations
cellular toxicity by LDH (Calu-3 cells): low cellular toxicity
viral load in the lung [3]: significantly reduced viral load
pulmonary fibrosis (histology) [4]: reducing pulmonary fibrosis; also recorded: reduces lung fibrosis
clinical efficacy in treating mild to moderate COVID-19 (SARS-CoV-2 [5]; 200 mg or 400 mg once daily for 7 days plus standard of care (FIGS. 17-20)): clinical efficacy
viral titers, as negative conversion rates of SARS-CoV-2 nucleic acid detection (SARS-CoV-2 [5]; 200 mg or 400 mg once daily for 7 days, relative to Control (FIG. 18)): lower viral titers
inflammation, as levels of interleukin 6 (SARS-CoV-2 [5]; 200 mg/day and 400 mg/day (FIG. 19)): reduced levels of inflammation
inflammation, as levels of C-reactive protein (CRP) (SARS-CoV-2 [5]; 200 mg/day and 400 mg/day (FIG. 20)): reduced levels of inflammation
relief rate of sustained clinical symptoms (SARS-CoV-2 [5]; 400 mg once daily for 7 days, relative to Control and to 200 mg (FIG. 17)): substantial improvement
